# Assay results from ChEMBL document CHEMBL5042496, “An unanticipated discovery towards novel naphthalimide corbelled aminothiazoximes as potential anti-MRSA agents and allosteric modulators for PBP2a” (Eur J Med Chem, 2022).
# Tests used:
# Staphylococcus aureus [1] = assay: Antibacterial activity against methicillin-resistant Staphylococcus aureus assessed as bacterial growth inhibition measured after 24 hrs by two fold serial dilution technique; format: functional
# Enterococcus faecium = assay: Antibacterial activity against Enterococcus faecium assessed as bacterial growth inhibition measured after 24 hrs by two fold serial dilution technique; format: functional
# Staphylococcus aureus [2] = assay: Antibacterial activity against Staphylococcus aureus assessed as bacterial growth inhibition measured after 24 hrs by two fold serial dilution technique; format: functional
# Staphylococcus aureus [3] = assay: Antibacterial activity against Staphylococcus aureus ATCC 25923 assessed as bacterial growth inhibition measured after 24 hrs by two fold serial dilution technique; format: functional
# Staphylococcus aureus [4] = assay: Antibacterial activity against Staphylococcus aureus ATCC 29213 assessed as bacterial growth inhibition measured after 24 hrs by two fold serial dilution technique; format: functional
# Klebsiella pneumoniae = assay: Antibacterial activity against Klebsiella pneumoniae assessed as bacterial growth inhibition measured after 24 hrs by two fold serial dilution technique; format: functional
# Escherichia coli [5] = assay: Antibacterial activity against Escherichia coli assessed as bacterial growth inhibition measured after 24 hrs by two fold serial dilution technique; format: functional
# Pseudomonas aeruginosa [6] = assay: Antibacterial activity against Pseudomonas aeruginosa assessed as bacterial growth inhibition measured after 24 hrs by two fold serial dilution technique; format: functional
# Acinetobacter baumannii = assay: Antibacterial activity against Acinetobacter baumannii assessed as bacterial growth inhibition measured after 24 hrs by two fold serial dilution technique; format: functional
# Pseudomonas aeruginosa [7] = assay: Antibacterial activity against Pseudomonas aeruginosa ATCC 27853 assessed as bacterial growth inhibition measured after 24 hrs by two fold serial dilution technique; format: functional
# Escherichia coli [8] = assay: Antibacterial activity against Escherichia coli ATCC 25922 assessed as bacterial growth inhibition measured after 24 hrs by two fold serial dilution technique; format: functional
# [9] = Hemolytic activity in human RBC assessed as hemolysis incubated for 1 hr; format: toxicity, cell-based, Erythrocyte; conditions: red blood cells
SMILES,MIC (Staphylococcus aureus [1]) [mg/L],MIC (Enterococcus faecium) [mg/L],MIC (Staphylococcus aureus [2]) [mg/L],MIC (Staphylococcus aureus [3]) [mg/L],MIC (Staphylococcus aureus [4]) [mg/L],MIC (Klebsiella pneumoniae) [mg/L],MIC (Escherichia coli [5]) [mg/L],MIC (Pseudomonas aeruginosa [6]) [mg/L],MIC (Acinetobacter baumannii) [mg/L],MIC (Pseudomonas aeruginosa [7]) [mg/L],MIC (Escherichia coli [8]) [mg/L],HC50 at 1 h [9] [µg/mL]
CO/N=C(\C(=O)N1CCN(c2ccc3c4c(cccc24)C(=O)N(c2nnc(C)s2)C3=O)CC1)c1csc(N)n1,1,16,64,64,16,4,4,32,32,32,32,265
CO/N=C(\C(=O)N1CCN(c2ccc3c4c(cccc24)C(=O)N(c2nc4ccccc4[nH]2)C3=O)CC1)c1csc(N)n1,4,128,128,128,128,8,256,16,128,32,16,367
CO/N=C(\C(=O)N1CCN(c2ccc3c4c(cccc24)C(=O)N(C2CCCC2)C3=O)CC1)c1csc(N)n1,8,16,64,64,32,32,64,64,8,32,64,278
CO/N=C(\C(=O)N1CCN(c2ccc3c4c(cccc24)C(=O)N(N)C3=O)CC1)c1csc(N)n1,4,32,64,32,64,32,2,16,32,32,64,250
CO/N=C(\C(=O)N1CCN(c2ccc3c4c(cccc24)C(=O)N(C2CC2)C3=O)CC1)c1csc(N)n1,32,32,32,16,64,32,32,64,16,128,64,266
CO/N=C(\C(=O)N1CCN(c2ccc3c4c(cccc24)C(=O)N(c2ncc(C)s2)C3=O)CC1)c1csc(N)n1,8,64,128,128,64,1,128,64,128,32,16,234
CO/N=C(\C(=O)N1CCN(c2ccc3c4c(cccc24)C(=O)N(C)C3=O)CC1)c1csc(N)n1,4,8,16,64,16,8,32,64,8,32,64,343
CO/N=C(\C(=O)N1CCN(c2ccc3c4c(cccc24)C(=O)N(C2CCCCC2)C3=O)CC1)c1csc(N)n1,16,16,64,128,64,16,64,128,8,64,64,257
CCCCN1C(=O)c2cccc3c(N4CCN(C(=O)/C(=N\OC)c5csc(N)n5)CC4)ccc(c23)C1=O,8,16,64,128,64,64,32,64,8,64,64,563
CO/N=C(\C(=O)N1CCN(c2ccc3c4c(cccc24)C(=O)N(CC(=O)O)C3=O)CC1)c1csc(N)n1,64,64,256,128,64,128,32,16,32,64,64,1000
